Data reported in patent US5670520A, “Method for inhibiting virus replication in mammalian cells using carbostyil derivatives” (Otsuka Pharmaceutical Co., Ltd., priority 1996, dated 1997).
Converted amounts (≈) assume the structure as drawn.

Assays:
MRC5 cells = assay: Microscopic evaluation of cytotoxicity in MRC5 cells; type: cell-based; conditions: vesnarinone up to 31 μg/ml, alone or with DHPG
ZEBRA, R, EA-R, EA-D = assay: Western immunoblot of EBV early antigens in Akata cells; type: cell-based, Epstein-Barr virus; conditions: 30 μg/ml vesnarinone
Procedure: 1 hr after release and transfer, the above-described anti-IgG antibody was added at a concentration of 50 μg/ml. 3 hrs and 20 hrs after treatment with the anti-IgG, the cells were harvested for the detection of EBV early antigens ZEBRA (BZLF1 product) by Western immunoblot.
More specifically, cells were washed with PBS, and then lysed at 4° C. in a buffer comprising 25 mM Tris-HCl (pH 7.4), 50 mM NaCl, 0.5% (w/v) sodium deoxycholate, 2.0% (v/v) Nonidet P-40, 0.2% (w/v) SDS, 1.0 mM phenyl-methane sulfonyl fluoride (PMSF), 10 μg/ml aprotinin, 10 μM leupeptin, and 100 μM sodium orthovanadate. After centrifugation, lysates were prepared for electrophoresis as described by Laemmli, Nature, 227:680-685 (1970). An amount of lysate equivalent to 4.0×10^5 cells was used for each immunoblot analysis.
After electrophoretic transfer of proteins to nitrocellulose filters and blocking the filters with 20 mM Tris-HCl (pH 8.0), 125 mM NaCl, 0.1% (v/v) Tween-20, 2.0% (w/v) BSA, and 0.1% (w/v) sodium azide, the filters were incubated with the appropriate primary antibody. For detection of ZEBRA (EB1, BZLF1 gene product), the antibody used was mouse monoclonal anti-EB1 (Z-125); for the detection of R (BRLF1 product), the antibody used was the mouse monoclonal anti-R (R5A9, provided by Dr. Evelyn Manet); for the detection of EA-R (BHRF1 product), monoclonal anti-EA-R (5B11, provided by Dr. Elliott Kieff) (Pearson et al, Virol., 160:151-161 (1987); and Henderson et al, Proc. Natl. Acad. Sci. USA, 90:8479-8483 (1993)), and for the detection of EA-D (BMRF1 product), the antibody used with the mouse monoclonal anti-EA-D (NEA-9240, DuPont, Boston, Mass. (Pearson et al, J. Virol., 47:193-201 (1983); and Kiehl et al, Virol., 184:330-340 (1991))).
Specific reactive bands were detected using anti-mouse secondary antibodies conjugated to alkaline phosphatase (Promega, Madison, Wis.) or horseradish peroxidase (Amersham) or ECL chemiluminescence (Amersham). That is, for detection of ZEBRA and R, alkaline phosphatase was used. For detection of EA-R and EA-D, horseradish peroxidase and the ECL chemiluminescence method was used (Amersham). Development was by the conventional methods, employing the colorogenic substrates bromochloroindolyl phosphate and nitroblue tetrazolium for alkaline phosphatase. The expression of ZEBRA reached a plateau level 3 hrs after stimulation and productive replication of EBV ceased 12 hrs after stimulation in this system.

thymidine kinase = assay: Thymidine kinase assay, vesnarinone added in vitro; type: biochemical; conditions: vesnarinone up to 100 μg/ml
Procedure: 5.0 μl of the kinase extract was incubated at 37° C. with 35 µl of kinase reaction buffer comprising 150 mM phosphate (pH 7.5), 20 mM ATP, 20 mM MgCl2, 40 mM KCl, 1.0 mM DTT, 10 mM NaF and 20 μM [^3 H]thymidine (6.7 Ci/mmole, ICN) for 5 or 15 min. The reaction was terminated by placing on ice, and an addition of 4.0 μl of 0.5M EDTA (pH 8.0). For measurement of dTTP-resistant thymidine kinase activity, a kinase reaction buffer additionally containing 100 μM dTTP (Pharmacia) was used.
The amount of phosphorylated [^3 H]thymidine derivatives formed during the reaction was determined by applying the reaction mixtures onto Whatman DE-81 paper filters, which were then washed four times in 1.0 mM ammoniumformate (pH 8.0), and once in ethanol before drying and liquid scintillation counting.

human T cells = assay: Cellular DNA content by flow cytometry (propidium iodide); type: cell-based; conditions: within 48 hrs; 250 μM vesnarinone, 15 nM aphidicolin or 100 μM deferoxamine
Procedure: Next, cellular DNA content was evaluated over the 0-120 hrs treatment period. More specifically, 10^6 T cells treated in the same manner as described above, were fixed with 70% (v/v) ethanol at 4° C. overnight, centrifuged and washed with phosphate buffered saline (PBS). The fixed cells were incubated with 0.5 ml of 0.25 mg/ml ribonuclease (Sigma, St. Louis, Mo.) in PBS at 37° C. for 10 min. The cell suspension was mixed with 0.5 ml of a 50 μg/ml propidium iodide (Calbiochem, La Jolla, Calif.) solution in PBS, and after 60 min analyzed by flow cytometry (EPICS Profile, Coulter, Hialeah, Fla.), collecting red fluorescence (>600 nm) with 488 nm excitation.

CMV strain AD169 = assay: CMV plaque reduction assay in MRC5 cells; type: cell-based; conditions: Human betaherpesvirus 5, AD169, MRC5, 168 h
Procedure: More specifically, subconfluent monolayers of MRC5 cells (Biowhittaker, Walkersville, Md.) in 12-well tissue culture plates were exposed to a suspension of a 1:500 dilution of stock virus (CMV strain AD169; ATCC No. VR-538) in Eagles Minimal Essential Medium (MEM) supplemented with 2.0% (v/v) fetal bovine serum, for 2 hr at 37° C. to allow for virus absorption. The fluid containing unabsorbed virus was then removed, and the cell layer rinsed with Eagles MEM without serum.
The minimum compound concentration that reduces plaque production by 50% (MIC50) was calculated from single compound assays by using a regression analysis program for semilog curve fitting.
The following formula of additivity, which is appropriate for inhibitors affecting different sites, was used.

Raji cells = assay: [3H]adenosine / [3H]adenine transport in Raji cells; conditions: 0-750 μM vesnarinone or 0-100 μM dipyridamole, 1 min pulse
[1] = cited from earlier work
Akata cells = assay: dNTP pools in Akata cells (enzymatic method); conditions: 100 μg/ml vesnarinone
Procedure: After a 10 min incubation on ice, the supernatant containing dNTPs was removed, frozen and evaporated with a rotary evaporator. The residue was dissolved in 100 μl of H2 O, and a 10 μl aliquot of this solution was used for the measurement of dNTP pool.
More specifically, 10 μl of the sample or a dNTP standard solution was mixed with 40 μl of the reaction buffer comprising 62.5 mMTris-HCl (pH 7.8), 0.625 mM DTT, 0.125 mg/ml calf thymus DNA (Sigma), 0.625 mg/ml BSA, 10 mM MgCl2, 6.25 μM three dNTPs, and 5.0 μCi/ml [^3 H]dATP (ICN, Costa Mesa, Calif.), for measurement of dTTP, dCTP, and dGTP, or [^3 H]dTTP (ICN), for measurement of dATP. The reaction solution was then mixed with 1.0 unit of E. coli DNA polymerase I (Boehringer Mannheim), and incubated for 40 min at 37° C. After completion of the reaction, the mixture was applied to Whatman DE-81 paper filters and radioactivity was determined using a liquid scintillation counter after three washes with 0.35M Na2 HPO4 (pH 7.5). Amounts of dNTP in the samples were calculated according to the calibration curves estimated by a set of standard dNTP samples.
In parallel, to measurement of the content of dNTPs in the untreated Akata cells after release, the dNTP pool in anti-IgG treated Akata cells was also measured in the same manner.

[2] = 31 μg/ml vesnarinone in overlay medium

SMILES: COc1ccc(C(=O)N2CCN(c3ccc4c(c3)CCC(=O)N4)CC2)cc1OC [vesnarinone, 3,4-dihydro-6-[4-(3,4-dimethoxybenzoyl)-1-piperazinyl]-2(1H)-quinoline]
- cytotoxicity by microscopic evaluation (MRC5 cells): No cytotoxicity was observed
- expression of ZEBRA (BZLF1) (ZEBRA, R, EA-R, EA-D; 3 hrs after anti-IgG): suppressed 3 hrs after stimulation with anti-IgG to a limited extent
- expression of EA-R (BHRF1) (ZEBRA, R, EA-R, EA-D; 3 hrs and 20 hrs): expressed to the same degree 3 hrs and 20 hrs after stimulation
- expression of R (BRLF1) (ZEBRA, R, EA-R, EA-D; 3 hrs and 20 hrs): expressed virtually at the same level in the presence or absence of vesnarinone
- expression of EA-D (BMRF1) (ZEBRA, R, EA-R, EA-D; 20 hrs after stimulation): dramatically suppressed in the presence of vesnarinone
- thymidine kinase activity, drug added to in vitro assay (thymidine kinase): did not display any inhibition of the thymidine kinase activity
- entry into S and G2/M phases (cellular DNA content) (human T cells): a certain proportion of the cells entered both S and G2/M phases of the cell cycle
- inhibition at 30 µg/mL (CMV strain AD169; read-out: efficacy against CMV plaque formation): 91.5%
- EC50 (CMV strain AD169; single compound assay, regression analysis, read-out: MIC50 (minimum concentration that reduces plaque production by 50%)): 24 µg/mL (≈ 60.7 µM)
- [3H]adenosine and [3H]adenine transport (Raji cells): inhibitory effects on nucleoside and nucleobase transport in vitro were observed within the therapeutic range
- therapeutic range in vivo [1]: 2 to 80 µM
- cellular content of dATP and dGTP (Akata cells; 13 hrs after DMSO release, without anti-IgG): displayed progressive reductions 13 hrs after release in the presence of vesnarinone
- level of dTTP in anti-IgG treated cells (Akata cells; 20 hrs after anti-IgG): partially suppressed in the presence of vesnarinone
- cellular content of dCTP (Akata cells; after DMSO release): remained low in the presence or absence of vesnarinone
- cellular content of dTTP (Akata cells; after DMSO release, without anti-IgG): the levels of dTTP remained quite low
- precipitate observed in culture [2]: A small amount of precipitate was observed at 31 μg/ml of vesnarinone
